Legend:
PPAR α mRNA = assay: Expression of PPAR α mRNA in human cell line (RT-PCR); assay type: cell-based; details: Caco-2 cells, serum-free medium, 10 μM, 0-5 hours after addition, FIG. 1
Protocol: (§1) Caco-2 cells (derived from colon cancer) as a human cell line were cultured at 37° C. in RPMI-1640 medium containing 10% fetal calf serum in the presence of 5% C02. The medium was then replaced with serum-free RPMI-1640 medium and the cells were cultured for 48 hours. In order to examine the effect of NIK-333, a solution of NIK-333 in ethanol was added at a final concentration of 10 μM. At 0, 0.5, 1, 2 and 5 hours after the addition, RNA was extracted to observe. mRNA for PPAR α, PPAR γ1 and PPAR γ2 by the RT-PCR method.

PPAR γ1 mRNA = assay: Expression of PPAR γ1 mRNA in human cell line (RT-PCR); assay type: cell-based; details: Caco-2 cells, serum-free medium, 10 μM, 0-5 hours after addition, FIG. 2
Protocol: as §1

PPAR γ2 mRNA = assay: Expression of PPAR γ2 mRNA in human cell line (RT-PCR); assay type: cell-based; details: Caco-2 cells, serum-free medium, 10 μM, 0-5 hours after addition
Protocol: as §1

PPAR α = molecular target: T1, PPAR α (Homo sapiens, UniProt Q07869); assay: Ligand activity for PPAR α (PPRE luciferase reporter in COS-7 cells); assay type: cell-based; details: 10 μM, 24 hours, FIG. 3; for luciferase activity, PPAR α expression vector not introduced (−) / luciferase activity, PPAR α expression vector introduced (+): firefly luciferase standardized by renilla luciferase; for luciferase activity, PPAR α expression vector introduced (+): RXR α + PPAR α + PPRE reporter
T1 construct: expressed in transfected cells; host or cells: COS-7 (monkey kidney)
T1 sequence (Q07869 1-468): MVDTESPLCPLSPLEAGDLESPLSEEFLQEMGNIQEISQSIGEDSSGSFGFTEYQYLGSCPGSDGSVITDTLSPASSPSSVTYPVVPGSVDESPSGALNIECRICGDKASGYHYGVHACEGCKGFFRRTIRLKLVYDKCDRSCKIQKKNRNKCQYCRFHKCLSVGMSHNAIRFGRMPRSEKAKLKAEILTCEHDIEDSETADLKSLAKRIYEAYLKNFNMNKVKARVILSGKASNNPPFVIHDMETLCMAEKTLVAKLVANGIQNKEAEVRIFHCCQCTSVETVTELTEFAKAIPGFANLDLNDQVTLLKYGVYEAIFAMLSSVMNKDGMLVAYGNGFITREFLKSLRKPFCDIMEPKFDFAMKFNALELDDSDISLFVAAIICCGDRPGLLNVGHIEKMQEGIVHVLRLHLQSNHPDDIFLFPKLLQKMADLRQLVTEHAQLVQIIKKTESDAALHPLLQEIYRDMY
T1 sequence (P19793 1-462 partner): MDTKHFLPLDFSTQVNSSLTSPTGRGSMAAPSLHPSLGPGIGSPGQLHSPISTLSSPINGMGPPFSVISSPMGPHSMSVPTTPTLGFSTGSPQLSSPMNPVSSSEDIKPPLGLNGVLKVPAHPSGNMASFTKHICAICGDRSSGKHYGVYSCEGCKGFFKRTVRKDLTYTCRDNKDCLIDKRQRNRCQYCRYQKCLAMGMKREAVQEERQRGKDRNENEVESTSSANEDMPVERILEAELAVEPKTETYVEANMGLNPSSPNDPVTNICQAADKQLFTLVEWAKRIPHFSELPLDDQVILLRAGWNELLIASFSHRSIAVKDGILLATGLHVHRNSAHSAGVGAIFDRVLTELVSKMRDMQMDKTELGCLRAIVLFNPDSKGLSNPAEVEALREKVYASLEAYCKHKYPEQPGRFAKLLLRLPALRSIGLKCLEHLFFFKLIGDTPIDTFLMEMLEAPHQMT
Protocol: COS-7 cells, a cell line derived from monkey kidney, were cultured at 37° C. in DMEM medium containing 10% fetal calf serum in the presence of 5% CO2. Then, expression vectors of RXR α (retinoic acid X receptor α) and PPAR α, and a reporter vector incorporated with PPRE (peroxisome proliferator-responsive element) as a PPAR-responsive element were cotransfected into the cells, and the cells were cultured for 24 hours. In order to examine the effect of NIK-333, a solution of NIK-333 or Wy-14643(selective agonist of PPAR α) in ethanol was added at a final concentration of 10 μM. After cultivation for 24 hours, the activity of firefly luciferase was measured. The measured values were represented as values standardized by using the renilla luciferase activity.

hepatoma = details: clinical, cited from earlier work

Row | luciferase activity, PPAR α expression vector introduced (+) (PPAR α) | SMILES | expression of PPAR α mRNA (PPAR α mRNA) | expression of PPAR γ1 mRNA (PPAR γ1 mRNA) | expression of PPAR γ2 mRNA (PPAR γ2 mRNA) | increasing action of ligand activity compared with Wy-14643 (PPAR α) | luciferase activity, PPAR α expression vector not introduced (−) (PPAR α) | recurrence of hepatoma after radical treatment (hepatoma; long-term administration for one-year) | liver function failure or other adverse effect during the administration (hepatoma; long-term administration)
1 | increased the luciferase activity | CC(C)=CCC/C(C)=C/CC/C(C)=C/C=C/C(C)=C/C(=O)O [NIK-333, (2E,4E,6E,10E)-3,7,11,15-Tetramethyl-2,4,6,10,14-hexadecapentaenoic acid] | observed from 0.5 hour after the addition | also observed from 0.5 hour after the addition | not observed | almost equivalent to the action of Wy-14643 | failed to increase the luciferase activity | significantly inhibited recurrence of hepatoma | almost no liver function failure or almost no other adverse effect
2 | increased the luciferase activity | Cc1cccc(Nc2cc(Cl)nc(SCC(=O)O)n2)c1C [Wy-14643, reference compound] | – | – | – | – | failed to increase the luciferase activity | – | –
